# Results from ChEMBL document CHEMBL3046022, “Synthesis and pharmacological screening of some novel chalconyl derivatives of substituted phenyl semicarbazide” (2011).
# What was measured:
# Type in all cases: functional
# Conditions in all cases: route intraperitoneal
# [1] = system: Mus musculus; assay: Anticonvulsant activity in Mus musculus albino (mouse) assessed as protection against maximal electroshock-induced seizures at 30 mg/kg, ip administered 30 min prior to electro shock-challenge measured for 2 min relative to control
# [2] = system: Mus musculus; assay: Anticonvulsant activity in Mus musculus albino (mouse) assessed as protection against maximal electroshock-induced seizures at 30 mg/kg, ip administered 30 min prior to electro shock-challenge measured for 2 min relative to phenytoin
# [3] = system: Mus musculus; assay: Anticonvulsant activity in Mus musculus albino (mouse) assessed as protection against maximal electroshock-induced seizures at 25 mg/kg, ip administered 30 min prior to electro shock-challenge measured for 2 min relative to control
smiles,measurement,setting,value
COc1ccc(/C=C/C(=N\NC(=O)Nc2ccc(Br)cc2)c2ccccc2O)cc1,Activity,[1],51.44%
same,Activity,[2],64.34%
CN(C)c1ccc(/C=C/C(=N\NC(=O)Nc2ccc(Br)cc2)c2ccccc2O)cc1,Activity,[1],30.95%
same,Activity,[2],38.71%
O=C(N/N=C(\C=C\c1ccccc1O)c1ccc(O)cc1O)Nc1ccc(Br)cc1,Activity,[1],72.93%
same,Activity,[2],91.21%
CN(C)c1ccc(/C=C/C(=N\NC(=O)Nc2ccc(Br)cc2)c2ccc(O)cc2O)cc1,Activity,[1],24.27%
same,Activity,[2],30.35%
O=C(N/N=C(\C=C\c1ccccc1O)c1ccccc1O)Nc1ccc(Br)cc1,Activity,[1],64.81%
same,Activity,[2],81.06%
O=C(N/N=C(\C=C\c1ccccc1O)c1cc(O)ccc1O)Nc1ccc(Br)cc1,Activity,[1],75.16%
same,Activity,[2],94%
O=C(N/N=C(\C=C\c1ccc(O)cc1)c1cc(O)ccc1O)Nc1ccc(Br)cc1,Activity,[1],76.61%
same,Activity,[2],95.82%
COc1ccc(/C=C/C(=N\NC(=O)Nc2ccc(Br)cc2)c2cc(O)ccc2O)cc1,Activity,[1],39.75%
same,Activity,[2],49.71%
O=C(N/N=C(\C=C\c1ccccc1)c1ccccc1O)Nc1ccc(F)cc1,Activity,[1],23.16%
same,Activity,[2],28.96%
O=C(N/N=C(\C=C\c1ccc(O)cc1)c1ccccc1O)Nc1ccc(F)cc1,Activity,[1],70.15%
same,Activity,[2],87.74%
COc1ccc(/C=C/C(=N\NC(=O)Nc2ccc(F)cc2)c2ccccc2O)cc1,Activity,[1],53.11%
same,Activity,[2],66.42%
CN(C)c1ccc(/C=C/C(=N\NC(=O)Nc2ccc(F)cc2)c2ccccc2O)cc1,Activity,[1],36.19%
same,Activity,[2],45.26%
O=C(N/N=C(\C=C\c1ccccc1O)c1ccc(O)cc1O)Nc1ccc(F)cc1,Activity,[1],74.05%
same,Activity,[2],92.62%
CN(C)c1ccc(/C=C/C(=N\NC(=O)Nc2ccc(F)cc2)c2ccc(O)cc2O)cc1,Activity,[1],29.62%
same,Activity,[2],37.04%
O=C(N/N=C(\C=C\c1ccccc1O)c1ccccc1O)Nc1ccc(F)cc1,Activity,[1],66.81%
same,Activity,[2],83.56%
O=C(N/N=C(\C=C\c1ccccc1O)c1cc(O)ccc1O)Nc1ccc(F)cc1,Activity,[1],75.94%
same,Activity,[2],94.98%
O=C(N/N=C(\C=C\c1ccc(O)cc1)c1cc(O)ccc1O)Nc1ccc(F)cc1,Activity,[1],79.73%
same,Activity,[2],99.72%
COc1ccc(/C=C/C(=N\NC(=O)Nc2ccc(F)cc2)c2cc(O)ccc2O)cc1,Activity,[1],45.21%
same,Activity,[2],56.54%
O=C(N/N=C(\C=C\c1ccccc1)c1ccccc1O)Nc1ccc(Br)cc1,Activity,[1],22.6%
same,Activity,[2],28.26%
O=C(N/N=C(\C=C\c1ccc(O)cc1)c1ccccc1O)Nc1ccc(Br)cc1,Activity,[1],67.92%
same,Activity,[2],84.95%
O=C1NC(=O)C(c2ccccc2)(c2ccccc2)N1 [PHENYTOIN],Activity,[3],79.95%
